Patent US20230011571A1, “SMALL MOLECULE FURIN INHIBITORS FOR TREATING INFECTIOUS DISEASES” (BP Asset V, Inc., priority 2019, published 2023)

Key:
Format in all cases: cell-based
[1] = test system: Chikungunya virus (CHIKV); assay: microbe, parasite or virus in culture; conditions: Chikungunya virus, Vero, 48 h, read-out: Percent viral inhibition CHKV
dengue virus (DENV) = assay: microbe, parasite or virus in culture; conditions: Dengue virus, Vero, 120 h, read-out: Percent viral inhibition DENY
Marburg virus (MARV) = assay: organism not typed; conditions: Vero, 72 h, read-out: Percent viral inhibition MARV

Structure (SMILES) | inhibition at 1 µM [1] | inhibition at 1 µM (dengue virus (DENV)) | inhibition at 1 µM (Marburg virus (MARV))
O=C(O)CC1CCN(Cc2cc(Oc3cnc(N4CCN(CC5(O)CC5)CC4)nc3)nc(-c3cc(Cl)cc(Cl)c3)c2)CC1 [Example 229, 2-(1-((2-(3,5-dichlorophenyl)-6-((2-(4-((1-hydroxycyclopropyl)methyl)piperazin-1-yl)pyrimidin-5-yl)oxy)pyridin-4-yl)methyl)piperidin-4-yl)acetic acid] | 43.2% | 54.8% | 23.7%
CN1C[C@@H]2C[C@H]1CN2c1ncc(Oc2cc(CN3CCC(CC(=O)O)CC3)cc(-c3cc(Cl)cc(Cl)c3)n2)cn1 [Example 231, 2-(1-((2-(3,5-dichlorophenyl)-6-((2-((1S,4S)-5-methyl-2,5-diazabicyclo[2.2.1]heptan-2-yl)pyrimidin-5-yl)oxy)pyridin-4-yl)methyl)piperidin-4-yl)acetic acid] | 25.8% | 44.2% | 66.6%
CCN1C[C@@H]2C[C@H]1CN2c1ncc(Oc2cc(CN3CCC(CC(=O)O)CC3)cc(-c3cc(Cl)cc(Cl)c3)n2)cn1 [Example 232, 2-(1-((2-(3,5-dichlorophenyl)-6-((2-((1S,4S)-5-ethyl-2,5-diazabicyclo[2.2.1]heptan-2-yl)pyrimidin-5-yl)oxy)pyridin-4-yl)methyl)piperidin-4-yl)acetic acid] | 37.1% | 19.5% | 43.4%
O=C(O)CC1CCN(Cc2cc(Oc3cnc(N4CCN(C5CC5)CC4)nc3)nc(-c3cc(Cl)cc(Cl)c3)c2)CC1 [Example 233, 2-(1-((2-((2-(4-cyclopropylpiperazin-1-yl)pyrimidin-5-yl)oxy)-6-(3,5-dichlorophenyl)pyridin-4-yl)methyl)piperidin-4-yl)acetic acid] | 16.3% | 55.7% | 57.1%
CCN1CCN(c2ncc(Oc3cc(CN4CCC(CC(=O)O)CC4)cc(-c4cc(Cl)cc(Cl)c4)n3)cn2)CC1 [Example 234, 2-(1-((2-(3,5-dichlorophenyl)-6-((2-(4-ethylpiperazin-1-yl)pyrimidin-5-yl)oxy)pyridin-4-yl)methyl)piperidin-4-yl)acetic acid] | 26.7% | 36.9% | 49.1%
CC(C)N1CCN(c2ncc(Oc3cc(CN4CCC(CC(=O)O)CC4)cc(-c4cc(Cl)cc(Cl)c4)n3)cn2)CC1 [Example 235, 2-(1-((2-(3,5-dichlorophenyl)-6-((2-(4-isopropylpiperazin-1-yl)pyrimidin-5-yl)oxy)pyridin-4-yl)methyl)piperidin-4-yl)acetic acid] | 27.4% | 0% | 69.8%
O=C(O)CC1CCN(Cc2cc(Oc3cnc(N4CCN(CCF)CC4)nc3)nc(-c3cc(Cl)cc(Cl)c3)c2)CC1 [Example 236, 2-(1-((2-(3,5-dichlorophenyl)-6-((2-(4-(2-fluoroethyl)piperazin-1-yl)pyrimidin-5-yl)oxy)pyridin-4-yl)methyl)piperidin-4-yl)acetic acid] | 39.8% | 64.5% | 68.5%
CC(O)CCN1CCN(c2ncc(Oc3cc(CN4CCC(CC(=O)O)CC4)cc(-c4cc(Cl)cc(Cl)c4)n3)cn2)CC1 (stereo not drawn) [Example 237, 2-(1-((2-(3,5-dichlorophenyl)-6-((2-(4-(3-hydroxybutyl)piperazin-1-yl)pyrimidin-5-yl)oxy)pyridin-4-yl)methyl)piperidin-4-yl)acetic acid] | 37% | 52.1% | 37.7%
CC(CCO)N1CCN(c2ncc(Oc3cc(CN4CCC(CC(=O)O)CC4)cc(-c4cc(Cl)cc(Cl)c4)n3)cn2)CC1 (stereo not drawn) [Example 238, 2-(1-((2-(3,5-dichlorophenyl)-6-((2-(4-(4-hydroxybutan-2-yl)piperazin-1-yl)pyrimidin-5-yl)oxy)pyridin-4-yl)methyl)piperidin-4-yl)acetic acid] | 35.8% | 66.1% | 56.8%
